Assay results published in the NIST ThermoML archive (doi:10.1021/je060203o).

Settings: Liquid; for mass density: Vibrating tube method; for speed of sound: Pulse-echo method

CCCCCn1cc[n+](C)c1.O=S(=O)([N-]S(=O)(=O)C(F)(F)F)C(F)(F)F
Settings	mass density [kg/m3]	speed of sound [m/s]
313.15 K, 25860 kPa	1409.15	–
313.15 K, 31480 kPa	1412.95	–
313.15 K, 37770 kPa	1417.13	–
313.15 K, 44170 kPa	1421.26	–
313.15 K, 50750 kPa	1425.48	–
313.15 K, 59590 kPa	1431.06	–
318.15 K, 100 kPa	1385.75	–
318.15 K, 500 kPa	–	1187.3
318.15 K, 1830 kPa	1387.09	–
318.15 K, 3500 kPa	–	1198.6
318.15 K, 7000 kPa	–	1211.5
318.15 K, 10000 kPa	–	1222.4
318.15 K, 10020 kPa	1393.29	–
318.15 K, 13500 kPa	–	1234.8
318.15 K, 14980 kPa	1396.9	–
318.15 K, 16990 kPa	–	1246.9
318.15 K, 19750 kPa	1400.31	–
318.15 K, 20000 kPa	–	1257
318.15 K, 25860 kPa	1404.59	–
318.15 K, 30000 kPa	–	1290
318.15 K, 31480 kPa	1408.43	–
318.15 K, 37770 kPa	1412.65	–
318.15 K, 40000 kPa	–	1321
318.15 K, 44170 kPa	1416.86	–
318.15 K, 50000 kPa	–	1350.2
318.15 K, 50750 kPa	1421.15	–
318.15 K, 59590 kPa	1426.81	–
318.15 K, 60000 kPa	–	1378.2
318.15 K, 70000 kPa	–	1404.9
318.15 K, 80000 kPa	–	1430.7
318.15 K, 90000 kPa	–	1455.5
318.15 K, 100000 kPa	–	1479.5
318.15 K, 112500 kPa	–	1508
318.15 K, 125000 kPa	–	1535.9
318.15 K, 137510 kPa	–	1562.6
318.15 K, 150000 kPa	–	1587.4
323.15 K, 100 kPa	1381.45	–
323.15 K, 1830 kPa	1382.69	–
323.15 K, 10020 kPa	1388.89	–
323.15 K, 14980 kPa	1392.55	–
323.15 K, 19750 kPa	1395.96	–
323.15 K, 25860 kPa	1400.22	–
323.15 K, 31480 kPa	1404.06	–
323.15 K, 37770 kPa	1408.3	–
323.15 K, 44170 kPa	1412.52	–
323.15 K, 50750 kPa	1416.77	–
323.15 K, 59590 kPa	1422.52	–
325.15 K, 100 kPa	1379.56	–
325.15 K, 1830 kPa	1380.89	–
325.15 K, 10020 kPa	1387.23	–
325.15 K, 14980 kPa	1390.89	–
325.15 K, 19750 kPa	1394.39	–
325.15 K, 25860 kPa	1398.72	–
325.15 K, 31480 kPa	1402.63	–
325.15 K, 37770 kPa	1406.92	–
325.15 K, 44170 kPa	1411.19	–
325.15 K, 50750 kPa	1415.51	–
325.15 K, 59590 kPa	1421.18	–
327.15 K, 100 kPa	1377.56	–
327.15 K, 1830 kPa	1378.86	–
327.15 K, 10020 kPa	1385.24	–
327.15 K, 14980 kPa	1388.96	–
327.15 K, 19750 kPa	1392.45	–
327.15 K, 25860 kPa	1396.84	–
327.15 K, 31480 kPa	1400.77	–
327.15 K, 37770 kPa	1405.12	–
327.15 K, 44170 kPa	1409.39	–
327.15 K, 50750 kPa	1413.81	–
327.15 K, 59590 kPa	1419.56	–
328.15 K, 500 kPa	–	1165.8
328.15 K, 3500 kPa	–	1177.4
328.15 K, 7000 kPa	–	1190.6
328.15 K, 10000 kPa	–	1201.8
328.15 K, 13500 kPa	–	1214.2
328.15 K, 16990 kPa	–	1226.6
328.15 K, 20000 kPa	–	1236.9
328.15 K, 30000 kPa	–	1270.5
328.15 K, 40000 kPa	–	1301.9
328.15 K, 50000 kPa	–	1331.7
328.15 K, 60000 kPa	–	1360.1
328.15 K, 70000 kPa	–	1387.2
328.15 K, 80000 kPa	–	1413.4
328.15 K, 90000 kPa	–	1438.4
328.15 K, 100000 kPa	–	1462.6
328.15 K, 112500 kPa	–	1491.6
328.15 K, 125000 kPa	–	1519.6
328.15 K, 137510 kPa	–	1546.6
328.15 K, 150000 kPa	–	1571.5
329.15 K, 100 kPa	1375.46	–
329.15 K, 1830 kPa	1376.78	–
329.15 K, 10020 kPa	1383.2	–
329.15 K, 14980 kPa	1386.93	–
329.15 K, 19750 kPa	1390.47	–
329.15 K, 25860 kPa	1394.89	–
329.15 K, 31480 kPa	1398.85	–
329.15 K, 37770 kPa	1403.2	–
329.15 K, 44170 kPa	1407.56	–
329.15 K, 50750 kPa	1411.94	–
329.15 K, 59590 kPa	1417.73	–
331.15 K, 100 kPa	1373.32	–
331.15 K, 1830 kPa	1374.64	–
331.15 K, 10020 kPa	1381.17	–
331.15 K, 14980 kPa	1384.96	–
331.15 K, 19750 kPa	1388.53	–
331.15 K, 25860 kPa	1392.98	–
331.15 K, 31480 kPa	1396.98	–
331.15 K, 37770 kPa	1401.34	–
331.15 K, 44170 kPa	1405.67	–
331.15 K, 50750 kPa	1410.08	–
331.15 K, 59590 kPa	1415.87	–
333.15 K, 100 kPa	1371	–
333.15 K, 1830 kPa	1372.46	–
333.15 K, 10020 kPa	1379.05	–
333.15 K, 14980 kPa	1382.89	–
333.15 K, 19750 kPa	1386.48	–
333.15 K, 25860 kPa	1390.95	–
333.15 K, 31480 kPa	1395.01	–
333.15 K, 37770 kPa	1399.42	–
333.15 K, 44170 kPa	1403.81	–
333.15 K, 50750 kPa	1408.2	–
333.15 K, 59590 kPa	1414.01	–
338.15 K, 500 kPa	–	1144.8
338.15 K, 3500 kPa	–	1156.5
338.15 K, 7000 kPa	–	1170
338.15 K, 10000 kPa	–	1181.4
338.15 K, 13500 kPa	–	1194.3
338.15 K, 16990 kPa	–	1206.7
338.15 K, 20000 kPa	–	1217.2
338.15 K, 30000 kPa	–	1251.3
338.15 K, 40000 kPa	–	1283.3
338.15 K, 50000 kPa	–	1313.6
338.15 K, 60000 kPa	–	1342.4
338.15 K, 70000 kPa	–	1369.8
338.15 K, 80000 kPa	–	1396.3
338.15 K, 90000 kPa	–	1421.6
338.15 K, 100000 kPa	–	1446.3
338.15 K, 112500 kPa	–	1475.3
338.15 K, 125000 kPa	–	1503.7
338.15 K, 137510 kPa	–	1530.9
338.15 K, 150000 kPa	–	1556.2
